Results as given in the supplement of paper PMC10307832.

How the values were obtained:
Test in all cases: relative viability (nuclei count vs DMSO), 5 days (fraction); higher = more cells survive
ChaGo-K-1 = test system: ChaGo-K-1
Outline: (§1)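 Lung cancer cell lines were pin-tool dosed in 1536-well plates on the day after seeding, with either a lone drug or a fixed anchor-drug dose plus five library-drug doses (not always all listed) in √10 steps. Nuclei were counted on 4× images after 5 days. Relative viability is the ratio of treated-well to vehicle-well nuclei counts, with each value a median of duplicate plates.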

EKVX = test system: EKVX
Outline: as §1

EMC-BAC-2 = test system: EMC-BAC-2
Outline: as §1

EPLC-272H = test system: EPLC-272H
Outline: as §1

H3255 = test system: H3255
Outline: as §1

HARA = test system: HARA
Outline: as §1

HCC-15 = test system: HCC-15
Outline: as §1

HCC-827 = test system: HCC-827
Outline: as §1

LC-2-ad = test system: LC-2-ad
Outline: as §1

LCLC-103H = test system: LCLC-103H
Outline: as §1

LK-2 = test system: LK-2
Outline: as §1

NCI-H1648 = test system: NCI-H1648
Outline: as §1

NCI-H1792 = test system: NCI-H1792
Outline: as §1

NCI-H1793 = test system: NCI-H1793
Outline: as §1

NCI-H1944 = test system: NCI-H1944
Outline: as §1

NCI-H2170 = test system: NCI-H2170
Outline: as §1

NCI-H23 = test system: NCI-H23
Outline: as §1

NCI-H2405 = test system: NCI-H2405
Outline: as §1

NCI-H3122 = test system: NCI-H3122
Outline: as §1

NCI-H596 = test system: NCI-H596
Outline: as §1

RERF-LC-KJ = test system: RERF-LC-KJ
Outline: as §1

SW 900 = test system: SW 900
Outline: as §1

Oc1nc(-c2ccc(C(F)(F)F)cc2)nc2c1CSCC2 [XAV939] + NC(=O)Nc1cc(-c2cccc(F)c2)sc1C(=O)N[C@H]1CCCNC1 [AZD7762] (partner 0.2 µM)
relative viability (ChaGo-K-1; first compound 0.08 µM): 0.904 | relative viability (ChaGo-K-1; first compound 0.253 µM): 0.686 | relative viability (ChaGo-K-1; first compound 0.8 µM): 0.717 | relative viability (ChaGo-K-1; first compound 2.53 µM): 0.754 | relative viability (EKVX; first compound 0.08 µM): 0.685 | relative viability (EKVX; first compound 0.253 µM): 0.646 | relative viability (EKVX; first compound 0.8 µM): 0.362 | relative viability (EKVX; first compound 2.53 µM): 0.56 | relative viability (EMC-BAC-2; first compound 0.08 µM): 1.1 | relative viability (EMC-BAC-2; first compound 0.253 µM): 1.04 | relative viability (EMC-BAC-2; first compound 0.8 µM): 0.95 | relative viability (EMC-BAC-2; first compound 2.53 µM): 0.878 | relative viability (EPLC-272H; first compound 0.08 µM): 0.229 | relative viability (EPLC-272H; first compound 0.253 µM): 0.18 | relative viability (EPLC-272H; first compound 0.8 µM): 0.193 | relative viability (EPLC-272H; first compound 2.53 µM): 0.0888 | relative viability (H3255; first compound 0.08 µM): 0.858 | relative viability (H3255; first compound 0.253 µM): 0.753 | relative viability (H3255; first compound 0.8 µM): 0.773 | relative viability (H3255; first compound 2.53 µM): 0.669 | relative viability (HARA; first compound 0.08 µM): 0.671 | relative viability (HARA; first compound 0.253 µM): 0.305 | relative viability (HARA; first compound 0.8 µM): 0.271 | relative viability (HARA; first compound 2.53 µM): 0.294 | relative viability (HCC-15; first compound 0.08 µM): 1.31 | relative viability (HCC-15; first compound 0.253 µM): 1.15 | relative viability (HCC-15; first compound 0.8 µM): 1.21 | relative viability (HCC-15; first compound 2.53 µM): 1.08 | relative viability (HCC-827; first compound 0.08 µM): 0.228 | relative viability (HCC-827; first compound 0.253 µM): 0.195 | relative viability (HCC-827; first compound 0.8 µM): 0.213 | relative viability (HCC-827; first compound 2.53 µM): 0.177 | relative viability (LC-2-ad; first compound 0.08 µM): 0.865 | relative viability (LC-2-ad; first compound 0.253 µM): 0.711 | relative viability (LC-2-ad; first compound 0.8 µM): 0.806 | relative viability (LC-2-ad; first compound 2.53 µM): 0.724 | relative viability (LCLC-103H; first compound 0.08 µM): 0.869 | relative viability (LCLC-103H; first compound 0.253 µM): 0.719 | relative viability (LCLC-103H; first compound 0.8 µM): 0.792 | relative viability (LCLC-103H; first compound 2.53 µM): 0.68 | relative viability (LK-2; first compound 0.08 µM): 0.375 | relative viability (LK-2; first compound 0.253 µM): 0.429 | relative viability (LK-2; first compound 0.8 µM): 0.344 | relative viability (LK-2; first compound 2.53 µM): 0.238 | relative viability (NCI-H1648; first compound 0.253 µM): 0.501 | relative viability (NCI-H1648; first compound 0.8 µM): 0.699 | relative viability (NCI-H1648; first compound 2.53 µM): 0.598 | relative viability (NCI-H1792; first compound 0.08 µM): 0.823 | relative viability (NCI-H1792; first compound 0.253 µM): 0.595 | relative viability (NCI-H1792; first compound 0.8 µM): 0.636 | relative viability (NCI-H1792; first compound 2.53 µM): 0.591 | relative viability (NCI-H1793; first compound 0.08 µM): 0.989 | relative viability (NCI-H1793; first compound 0.253 µM): 0.307 | relative viability (NCI-H1793; first compound 0.8 µM): 0.355 | relative viability (NCI-H1793; first compound 2.53 µM): 0.312 | relative viability (NCI-H1944; first compound 0.08 µM): 0.589 | relative viability (NCI-H1944; first compound 0.253 µM): 0.539 | relative viability (NCI-H1944; first compound 0.8 µM): 0.477 | relative viability (NCI-H1944; first compound 2.53 µM): 0.382 | relative viability (NCI-H2170; first compound 0.08 µM): 0.867 | relative viability (NCI-H2170; first compound 0.253 µM): 0.692 | relative viability (NCI-H2170; first compound 0.8 µM): 0.823 | relative viability (NCI-H2170; first compound 2.53 µM): 0.532 | relative viability (NCI-H23; first compound 0.08 µM): 0.393 | relative viability (NCI-H23; first compound 0.8 µM): 0.195 | relative viability (NCI-H23; first compound 2.53 µM): 0.238 | relative viability (NCI-H2405; first compound 0.08 µM): 0.701 | relative viability (NCI-H2405; first compound 0.253 µM): 0.731 | relative viability (NCI-H2405; first compound 0.8 µM): 0.672 | relative viability (NCI-H2405; first compound 2.53 µM): 0.569 | relative viability (NCI-H3122; first compound 0.08 µM): 1.01 | relative viability (NCI-H3122; first compound 0.253 µM): 0.964 | relative viability (NCI-H3122; first compound 0.8 µM): 0.9 | relative viability (NCI-H3122; first compound 2.53 µM): 0.573 | relative viability (NCI-H596; first compound 0.08 µM): 0.918 | relative viability (NCI-H596; first compound 0.253 µM): 0.896 | relative viability (NCI-H596; first compound 0.8 µM): 1.02 | relative viability (NCI-H596; first compound 2.53 µM): 1.02 | relative viability (RERF-LC-KJ; first compound 0.08 µM): 0.925 | relative viability (RERF-LC-KJ; first compound 0.253 µM): 0.711 | relative viability (RERF-LC-KJ; first compound 0.8 µM): 0.848 | relative viability (RERF-LC-KJ; first compound 2.53 µM): 0.69 | relative viability (SW 900; first compound 0.253 µM): 0.616 | relative viability (SW 900; first compound 0.8 µM): 0.599 | relative viability (SW 900; first compound 2.53 µM): 0.501
